Reference: publication PMC11320742, “Radiosynthesis and Evaluation of 11C-Labeled Isoindolone-Based Positive Allosteric Modulators for Positron Emission Tomography Imaging of Metabotropic Glutamate Receptor 2” (ACS Pharmacology & Translational Science, 2024)

Experiments:
CYP2C19 = CYP2C19 (Homo sapiens, UniProt P33261); assay: CYP inhibition; assay type: in vitro ADME
CYP1A2 = molecular target: T1, CYP1A2 (Homo sapiens, UniProt P05177); assay: CYP inhibition; assay type: in vitro ADME
T1 sequence (P05177 1-516): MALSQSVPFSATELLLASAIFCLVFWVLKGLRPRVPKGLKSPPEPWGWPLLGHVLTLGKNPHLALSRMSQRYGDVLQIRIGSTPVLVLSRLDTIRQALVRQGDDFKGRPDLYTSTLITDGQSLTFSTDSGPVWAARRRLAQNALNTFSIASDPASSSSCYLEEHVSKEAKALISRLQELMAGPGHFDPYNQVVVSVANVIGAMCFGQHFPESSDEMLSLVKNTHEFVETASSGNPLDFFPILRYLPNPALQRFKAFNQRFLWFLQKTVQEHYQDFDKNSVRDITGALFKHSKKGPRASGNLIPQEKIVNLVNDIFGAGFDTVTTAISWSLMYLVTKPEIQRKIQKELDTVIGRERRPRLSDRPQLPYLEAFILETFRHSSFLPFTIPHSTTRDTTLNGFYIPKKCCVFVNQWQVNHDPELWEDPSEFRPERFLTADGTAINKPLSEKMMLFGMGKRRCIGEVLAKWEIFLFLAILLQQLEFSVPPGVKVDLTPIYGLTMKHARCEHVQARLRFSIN

CYP3A4 = CYP3A4 (Homo sapiens, UniProt P08684); assay: CYP inhibition; assay type: in vitro ADME
pKa = assay type: physicochemical
Experimental: (§1) To determine the binding affinities, saturation binding experiments of the corresponding tritiated ligands were conducted on CHO membranes stably expressing mGluR2. […] Multiparameter optimization (MPO) is a valuable tool to evaluate the BBB permeability of drug candidates. […] To investigate the selectivity of AZ12559322 for mGluR2, further counter-screening of AZ12559322 was conducted, and the results are detailed in Figure 3C.

CYP2C9 = CYP2C9 (Homo sapiens, UniProt P11712); assay: CYP inhibition; assay type: in vitro ADME
hERG channel = hERG channel (Homo sapiens, UniProt Q12809); assay: hERG channel inhibition; assay type: biochemical
mGluR3 = mGluR3 (Homo sapiens, UniProt Q14832); assay: Counter-screening, mGluR family selectivity; assay type: biochemical
Experimental: as §1

mGluR4 = mGluR4 (Homo sapiens, UniProt Q14833); assay: Counter-screening, mGluR family selectivity; assay type: biochemical
Experimental: as §1

mGluR1 = mGluR1 (Homo sapiens, UniProt Q13255); assay: Counter-screening, mGluR family selectivity; assay type: biochemical
Experimental: as §1

mGluR2 [1] = molecular target: T2, mGluR2 (Homo sapiens, UniProt Q14416); assay: Counter-screening, mGluR family selectivity; assay type: biochemical
T2 construct: expressed in transfected cells; host or cells: CHO
Experimental: as §1

mGluR8 = mGluR8 (Homo sapiens, UniProt O00222); assay: Counter-screening, mGluR family selectivity; assay type: biochemical
Experimental: as §1

mGluR5 = mGluR5 (Homo sapiens, UniProt P41594); assay: Counter-screening, mGluR family selectivity; assay type: biochemical
Experimental: as §1

mGluR6 = mGluR6 (Homo sapiens, UniProt O15303); assay: Counter-screening, mGluR family selectivity; assay type: biochemical
Experimental: as §1

mGluR7 = mGluR7 (Homo sapiens, UniProt Q14831); assay: Counter-screening, mGluR family selectivity; assay type: biochemical
Experimental: as §1

mGluR2 [2] = molecular target: T3, mGluR2 (Rattus norvegicus, UniProt P31421); assay: In vitro ARG of [3H]AZ12559322 on rat brain tissues (binding data, Figure S1); conditions: determined by in vitro ARG of [3H]AZ12559322 on rat brain tissues
T3 construct: the brain sections of rat or cynomolgus monkey brains in 20 μm thickness; from tissue; host or cells: rat brain sections
Experimental: To determine the binding affinities, saturation binding experiments of the corresponding tritiated ligands were conducted on CHO membranes stably expressing mGluR2. […] The blood–brain barrier permeability (log BB) values of 3a–3c were predicted in the range of −0.14 to −0.51. Multiparameter optimization (MPO) is a valuable tool to evaluate the BBB permeability of drug candidates. In general, CNS MPO scores on a scale between 0 and 6, and the score value ≥4.0 is highly desirable. […] Therefore, AZ12559322 was selected as the most promising mGluR2 PAM for further ADME profiling. To investigate the selectivity of AZ12559322 for mGluR2, further counter-screening of AZ12559322 was conducted, and the results are detailed in Figure 3C.
(§2) The tritium-labeled ligand [^3H]AZ12559322 for ARG studies was prepared by AstraZeneca.[23] Briefly, the brain sections of rat or cynomolgus monkey brains in 20 μm thickness were warmed to room temperature in a vacuum chamber over 3 h on the day of the experiment.[52] All sections were incubated in 50 mM Tris HCl, 5 mM MgCl2, and 0.9% NaCl (pH 7.4) for 5 min at room temperature. The brain sections were dried and incubated with [^3H]AZ12559322 in the above buffer for 30 min at ambient temperature. […]

mGluR2 [3] = molecular target: T2, mGluR2; assay: Saturation binding of tritiated ligands on CHO membranes stably expressing mGluR2; conditions: for Ki: mGluR2, CHO membranes; for Kd: saturation binding of tritiated ligand, CHO membranes expressing mGluR2
Experimental: as §1

CYP2D6 = CYP2D6 (Homo sapiens, UniProt P10635); assay: CYP inhibition; assay type: in vitro ADME
mGluR2 [4] = assay: In vitro autoradiography of NHP prefrontal cortex with [3H]AZ12559322 (blocking); assay type: binding, cynomolgus monkey; conditions: blocker 5 μM, n = 2
Experimental: (§3) Encouraged by the promising ligand–protein binding ability of AZ12559322, in vitro autoradiography (ARG) studies were conducted on rat brain tissues to assess the binding specificity of [^3H]AZ12559322. Consistent with previous reports of the regional mGluR2 expression in the rat brain,[45] […] Subsequently, in vitro ARG studies with brain regions from cynomolgus monkeys were conducted to confirm the specificity in higher species. […] Subsequent immunohistochemical analyses verified that […] was binding to the regions with high expression of mGluR2 (see Figure S2 in the Supporting Information). Altogether, these studies indicated high mGluR2 in vitro binding specificity of AZ12559322 on rat and NHP brain tissue sections and positive allosteric mechanism of action.
Figure 6 In vitro autoradiography and quantitative analyses of NHP prefrontal cortex with [^3H]AZ12559322 (n = 2). Total binding and nonspecific binding in the presence of 5 μM of LY-487379 or AZD8418. *p < 0.05.
as §2, with “temperature.” for “temperature. The brain sections were dried and incubated with [^3H]AZ12559322 in the above buffer for 30 min at ambient temperature.”

mGluR2 [5] = molecular target: T3, mGluR2; assay: In situ [35S]GTPγS autoradiography in rat brain tissue; assay type: biochemical; conditions: in the presence of agonist LY379268
Experimental: as §3
(§4) The in situ GTPγS ARG studies in the rat and NHP brain tissues were conducted according to previous reports.[54] Briefly, […] thick brain tissue sections were incubated twice in assay buffer, pH 7.5 for 10 min at 25 °C and once in assay buffer with 2 mM GDP for 15 min at 25 °C. Slides were then incubated in an assay buffer containing 0.04 nM [^35S]GTPgS in the presence or absence of LY379268 and AZD8529 for 2 h at 25 °C. The incubation was stopped by washing twice for 3 min in ice-cold 50 mM Tris–HCl and a quick dip in ice-cold distilled water. […] Films were developed by standard techniques, digitized, and analyzed.

mGluR2 [6] = assay: In situ [35S]GTPγS autoradiography in NHP brain tissue; assay type: biochemical; conditions: in the presence of agonist LY379268
Experimental: as §3, §4

mGluR2 [7] = molecular target: T3, mGluR2; assay: In vitro autoradiography of rat brain tissue with [3H]AZ12559322 (baseline and blockade); assay type: binding; conditions: baseline; high in prefrontal cortex, cerebral cortex, hippocampus; low in thalamus
Experimental: as §3
Figure 5 In vitro autoradiography of rat brain tissue with [^3H]AZ12559322. (A) Autoradiograms after incubation with either [^3H]AZ12559322 only (baseline) or 10 μM AZ12522721 (blockade). (B) Quantitative analyses of the autoradiograms under baseline and blocking conditions (n = 4). ***p ≤ 0.001, ns = nonsignificant.
The tritium-labeled ligand [^3H]AZ12559322 for ARG studies was prepared by AstraZeneca.[23] Briefly, the brain sections of rat or cynomolgus monkey brains in 20 μm thickness were warmed to room temperature in a vacuum chamber over 3 h on the day of the experiment.[52] […]

mGluR2 [8] = assay: PET imaging in NHP; assay type: in vivo; conditions: cynomolgus monkey, IV injection, baseline
Experimental: With all three radioligands in hand, we sought to evaluate the feasibility of these radioligands for quantifying mGluR2 PAM occupancy in the NHP brain. PET imaging studies of [^11C]AZ12559322, [^11C]AZ12592068, and [^11C]AZ12588953 were performed in a cynomolgus monkey. Radioactivity was acquired for 120 min after IV injection of the respective radioligand. […] Further structural modification of these isoindolone derivatives is necessary to enhance brain exposure and provide a suitable radioligand for in vivo imaging.
PET imaging studies were conducted in one anesthetized healthy cynomolgus monkey and are fully detailed in Dahl et al.[53] The study was approved by the Stockholm Animal Research Ethical Committee (Dnr. N245/04). […] The head was immobilized with a fixation device, and body temperature was maintained by Bair Hugger model 505 (Arizant Healthcare, MN, USA) and continuously monitored by an esophageal thermometer. ECG, heart rate, blood pressure, respiratory rate, and oxygen saturation were continuously monitored throughout the experiments. […] Radioactivity in the brain was measured continuously for 123 min using the high-resolution research tomograph (HRRT; Siemens Molecular Imaging, Knoxville, TN, USA) according to a preprogrammed series of 34 frames.

T3 sequence (P31421 19-872): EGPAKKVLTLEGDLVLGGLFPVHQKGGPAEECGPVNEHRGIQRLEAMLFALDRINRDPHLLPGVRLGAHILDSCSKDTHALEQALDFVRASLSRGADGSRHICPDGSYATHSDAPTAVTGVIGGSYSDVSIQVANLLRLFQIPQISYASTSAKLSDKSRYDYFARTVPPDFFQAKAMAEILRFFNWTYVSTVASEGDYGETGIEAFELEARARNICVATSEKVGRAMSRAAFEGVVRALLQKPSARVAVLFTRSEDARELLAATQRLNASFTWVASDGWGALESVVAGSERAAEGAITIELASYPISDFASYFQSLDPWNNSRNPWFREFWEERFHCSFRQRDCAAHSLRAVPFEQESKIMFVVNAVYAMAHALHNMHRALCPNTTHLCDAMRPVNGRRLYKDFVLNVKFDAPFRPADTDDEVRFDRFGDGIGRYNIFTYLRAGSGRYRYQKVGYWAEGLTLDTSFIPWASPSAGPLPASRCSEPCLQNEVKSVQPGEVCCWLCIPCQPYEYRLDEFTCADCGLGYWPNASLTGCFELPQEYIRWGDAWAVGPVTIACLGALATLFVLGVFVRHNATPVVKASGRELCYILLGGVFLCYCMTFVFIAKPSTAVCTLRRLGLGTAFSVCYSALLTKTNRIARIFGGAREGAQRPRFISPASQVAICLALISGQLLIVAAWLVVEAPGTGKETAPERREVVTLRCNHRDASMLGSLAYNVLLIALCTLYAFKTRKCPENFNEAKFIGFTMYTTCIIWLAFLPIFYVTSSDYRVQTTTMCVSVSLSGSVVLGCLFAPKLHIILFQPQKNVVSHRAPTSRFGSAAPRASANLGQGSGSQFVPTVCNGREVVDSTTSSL
T2 sequence (Q14416 19-872): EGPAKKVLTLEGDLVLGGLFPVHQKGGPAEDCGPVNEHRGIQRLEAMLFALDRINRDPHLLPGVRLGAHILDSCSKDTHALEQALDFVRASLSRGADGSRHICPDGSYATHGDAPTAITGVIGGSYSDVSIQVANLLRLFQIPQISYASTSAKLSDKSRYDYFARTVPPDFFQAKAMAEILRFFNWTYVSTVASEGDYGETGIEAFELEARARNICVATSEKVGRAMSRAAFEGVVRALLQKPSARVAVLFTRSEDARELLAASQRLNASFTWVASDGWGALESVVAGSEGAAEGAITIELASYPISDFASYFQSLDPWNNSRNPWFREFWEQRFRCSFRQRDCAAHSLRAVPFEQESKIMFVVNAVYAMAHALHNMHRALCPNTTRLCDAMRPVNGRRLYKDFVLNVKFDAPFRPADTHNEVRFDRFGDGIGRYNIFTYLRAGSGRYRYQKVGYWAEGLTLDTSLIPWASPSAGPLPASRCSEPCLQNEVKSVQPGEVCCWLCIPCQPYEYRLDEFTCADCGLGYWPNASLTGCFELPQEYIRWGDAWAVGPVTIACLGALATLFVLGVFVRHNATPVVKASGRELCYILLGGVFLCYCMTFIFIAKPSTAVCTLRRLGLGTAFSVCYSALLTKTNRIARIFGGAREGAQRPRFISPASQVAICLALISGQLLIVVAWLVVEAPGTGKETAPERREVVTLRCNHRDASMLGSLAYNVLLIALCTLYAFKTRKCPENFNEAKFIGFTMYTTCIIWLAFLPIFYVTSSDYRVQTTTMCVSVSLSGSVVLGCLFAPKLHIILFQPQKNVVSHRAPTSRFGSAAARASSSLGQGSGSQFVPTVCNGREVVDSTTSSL
CYP2C9, sequence (P11712 whole entry): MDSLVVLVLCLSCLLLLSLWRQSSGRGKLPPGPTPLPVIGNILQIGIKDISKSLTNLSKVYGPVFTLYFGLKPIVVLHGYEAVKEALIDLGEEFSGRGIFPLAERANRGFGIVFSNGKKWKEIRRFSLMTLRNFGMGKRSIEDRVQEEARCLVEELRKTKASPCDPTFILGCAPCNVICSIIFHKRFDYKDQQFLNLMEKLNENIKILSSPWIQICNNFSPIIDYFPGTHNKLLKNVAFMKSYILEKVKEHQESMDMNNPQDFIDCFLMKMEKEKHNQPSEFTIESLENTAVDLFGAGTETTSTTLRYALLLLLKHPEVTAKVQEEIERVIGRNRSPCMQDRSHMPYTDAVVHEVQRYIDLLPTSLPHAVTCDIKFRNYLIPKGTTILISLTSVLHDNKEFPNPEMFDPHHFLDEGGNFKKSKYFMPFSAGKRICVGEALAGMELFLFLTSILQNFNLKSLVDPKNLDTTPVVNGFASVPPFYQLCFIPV
CYP2C19, sequence (P33261 whole entry): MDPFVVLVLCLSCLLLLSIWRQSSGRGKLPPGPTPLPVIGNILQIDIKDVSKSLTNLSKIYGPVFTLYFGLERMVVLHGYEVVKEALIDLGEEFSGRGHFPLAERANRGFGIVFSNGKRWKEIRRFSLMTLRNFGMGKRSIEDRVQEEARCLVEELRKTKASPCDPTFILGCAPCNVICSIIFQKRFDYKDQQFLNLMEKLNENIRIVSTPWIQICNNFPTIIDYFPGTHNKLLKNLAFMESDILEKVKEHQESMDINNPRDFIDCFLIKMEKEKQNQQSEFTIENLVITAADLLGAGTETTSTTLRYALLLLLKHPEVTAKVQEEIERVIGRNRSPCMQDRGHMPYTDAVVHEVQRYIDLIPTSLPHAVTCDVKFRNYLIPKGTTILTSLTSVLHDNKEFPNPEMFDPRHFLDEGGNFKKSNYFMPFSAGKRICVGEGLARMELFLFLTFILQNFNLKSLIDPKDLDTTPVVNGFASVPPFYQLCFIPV
CYP3A4, sequence (P08684 whole entry): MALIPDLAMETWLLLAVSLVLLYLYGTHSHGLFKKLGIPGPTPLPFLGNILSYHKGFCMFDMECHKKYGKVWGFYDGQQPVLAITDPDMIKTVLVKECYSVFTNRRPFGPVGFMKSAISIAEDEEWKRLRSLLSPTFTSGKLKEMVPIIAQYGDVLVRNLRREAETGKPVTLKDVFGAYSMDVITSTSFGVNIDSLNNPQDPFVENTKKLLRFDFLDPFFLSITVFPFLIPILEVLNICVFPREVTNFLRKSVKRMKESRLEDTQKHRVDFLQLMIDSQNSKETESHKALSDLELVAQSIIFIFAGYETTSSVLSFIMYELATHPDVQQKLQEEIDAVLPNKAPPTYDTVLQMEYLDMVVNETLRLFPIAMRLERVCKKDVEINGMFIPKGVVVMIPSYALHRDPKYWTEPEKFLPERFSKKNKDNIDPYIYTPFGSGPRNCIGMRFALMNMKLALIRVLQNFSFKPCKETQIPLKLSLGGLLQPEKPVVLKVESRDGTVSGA
CYP2D6, sequence (P10635 whole entry): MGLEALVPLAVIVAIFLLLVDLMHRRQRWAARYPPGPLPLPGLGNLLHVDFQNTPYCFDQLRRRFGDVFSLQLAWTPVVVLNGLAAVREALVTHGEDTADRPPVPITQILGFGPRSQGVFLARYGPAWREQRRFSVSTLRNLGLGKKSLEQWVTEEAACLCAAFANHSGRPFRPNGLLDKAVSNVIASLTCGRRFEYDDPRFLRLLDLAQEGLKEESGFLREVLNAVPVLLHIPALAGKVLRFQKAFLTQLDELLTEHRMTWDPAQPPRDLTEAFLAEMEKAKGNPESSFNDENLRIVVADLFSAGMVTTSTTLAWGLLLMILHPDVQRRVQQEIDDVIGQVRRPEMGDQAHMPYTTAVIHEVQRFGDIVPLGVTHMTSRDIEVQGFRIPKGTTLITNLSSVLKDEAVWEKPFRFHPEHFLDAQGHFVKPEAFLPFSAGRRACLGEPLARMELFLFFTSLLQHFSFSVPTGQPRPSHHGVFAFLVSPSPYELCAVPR
mGluR3, sequence (Q14832 23-879): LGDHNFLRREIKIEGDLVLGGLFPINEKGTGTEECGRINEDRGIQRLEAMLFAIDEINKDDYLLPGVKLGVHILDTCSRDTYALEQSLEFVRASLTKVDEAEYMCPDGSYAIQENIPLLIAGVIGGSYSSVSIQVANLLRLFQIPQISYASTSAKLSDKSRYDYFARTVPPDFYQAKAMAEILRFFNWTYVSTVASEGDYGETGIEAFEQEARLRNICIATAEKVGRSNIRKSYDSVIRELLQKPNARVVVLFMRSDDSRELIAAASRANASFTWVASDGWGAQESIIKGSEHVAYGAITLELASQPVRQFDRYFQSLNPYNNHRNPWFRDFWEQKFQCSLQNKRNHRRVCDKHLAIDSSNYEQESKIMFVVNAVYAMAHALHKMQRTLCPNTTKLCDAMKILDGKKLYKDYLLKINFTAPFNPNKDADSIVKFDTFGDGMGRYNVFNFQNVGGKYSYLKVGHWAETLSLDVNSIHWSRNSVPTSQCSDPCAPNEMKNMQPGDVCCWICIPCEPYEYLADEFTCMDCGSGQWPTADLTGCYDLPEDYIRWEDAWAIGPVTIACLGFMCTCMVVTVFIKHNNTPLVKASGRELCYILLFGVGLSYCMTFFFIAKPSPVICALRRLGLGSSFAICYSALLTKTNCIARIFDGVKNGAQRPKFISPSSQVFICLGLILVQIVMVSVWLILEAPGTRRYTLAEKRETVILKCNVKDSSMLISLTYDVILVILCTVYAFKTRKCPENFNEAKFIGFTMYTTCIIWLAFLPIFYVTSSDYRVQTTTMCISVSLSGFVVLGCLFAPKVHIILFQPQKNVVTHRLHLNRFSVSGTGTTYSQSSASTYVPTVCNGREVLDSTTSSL

Compound `Cc1cc(-c2cccc(NS(C)(=O)=O)c2)cc2c1C(=O)N(C(C)C)C2` [AZ12559322, N-[3-(2-isopropyl-7-methyl-1-oxo-2,3-dihydro-1H-isoindol-5-yl)phenyl]methanesulfonamide] has an inhibition at 1 µM (CYP2C19; at 1 μM) of 13%, an inhibition at 10 µM (CYP2C19; at 10 μM) of 51% and an inhibition at 10 µM (CYP1A2) of 37%. For the same compound, the inhibition at 1 µM (CYP3A4; at 1 μM) was 0%, the inhibition at 10 µM (CYP3A4; at 10 μM) was 12% and the pKa (pKa) was 8.46. It also gave an inhibition at 1 µM (CYP2C9; at 1 μM) of 8%, an inhibition at 10 µM (CYP2C9; at 10 μM) of 46% and an IC50 (hERG channel) of 9350 nM. It also gave an IC50 (mGluR3) of over 25000 nM, an IC50 (mGluR4) of over 23600 nM and an IC50 (mGluR1) of over 30000 nM. The IC50 (mGluR2 [1]) was 4.7 nM, the “Selectivity for mGluR2 over all other mGluR subtypes” value (mGluR2 [1]; against all other mGluRs) was over 4000 fold and the IC50 (mGluR8) was over 20300 nM. It also gave an IC50 (mGluR5) of over 30000 nM, an IC50 (mGluR6) of over 30000 nM and an IC50 (mGluR7) of over 30000 nM. For the same compound, the Kd (mGluR2 [2]) was 1.31 nM, the Ki (mGluR2 [3]) was 2.68 nM and the Kd (mGluR2 [3]) was 11 nM. It also gave a Specific binding% (mGluR2 [3]; specific binding to mGluR2 in vitro) of 89%, an inhibition at 1 µM (CYP2D6; at 1 μM) of 0% and an inhibition at 10 µM (CYP2D6; at 10 μM) of 11%.
Compound `Cc1cc(-c2cccc(NS(C)(=O)=O)c2)cc2c1C(=O)N(C1CCC1)C2` [AZ12588953, N-(3-(2-cyclobutyl-7-methyl-1-oxoisoindolin-5-yl)phenyl)methanesulfonamide] has a Ki (mGluR2 [3]) of 2.02 nM and a Kd (mGluR2 [3]) of 4.7 nM.
`Cc1cc(-c2cccc(NS(C)(=O)=O)c2)cc2c1C(=O)N([C@@H](C)C(F)(F)F)C2` [AZ12592068, (S)-N-(3-(2-(1,1,1-trifluoropropan-2-yl)-7-methyl-1-oxoisoindolin-5-yl)phenyl)methanesulfonamide] gave a Ki (mGluR2 [3]) of 0.71 nM and a Kd (mGluR2 [3]) of 2 nM.
In the case of `C[C@@H](C1CC1)N1Cc2cc(-c3cc(C(=O)N(C)C)no3)cc(Cl)c2C1=O` [AZD8418], the “Diminished [3H]AZ12559322 binding in NHP prefrontal cortex” value (mGluR2 [4]) is reported as 40–45%.
With `Cc1cc(-c2nc(CN3CCNCC3)no2)cc2c1C(=O)N(Cc1ccc(OC(F)(F)F)cc1)C2` [AZD8529] the “Modulation in in situ GTPγS ARG” value (mGluR2 [5]) was “positive modulation” and the “Modulation in in situ GTPγS ARG” value (mGluR2 [6]) was “positive modulation”.
For `COc1ccccc1Oc1ccc(N(Cc2cccnc2)S(=O)(=O)CC(F)(F)F)cc1` [LY-487379], the “Diminished [3H]AZ12559322 binding in NHP prefrontal cortex” value (mGluR2 [4]) was 40–45%.
In the case of `Cc1cc(-c2cccc(NS(C)(=O)=O)c2)cc2c1C(=O)N(C(C)C)C2` [[^3H]AZ12559322, [^3H]-N-[3-(2-Isopropyl-7-methyl-1-oxo-2,3-dihydro-1H-isoindol-5-yl)phenyl]methanesulfonamide], the “Regional distribution of radioligand binding in rat brain sections” value (mGluR2 [7]) is reported as “heterogeneous distribution”.
With `CC(C)N1Cc2cc(-c3cccc(NS(C)(=O)=O)c3)cc([11CH3])c2C1=O` [[^11C]AZ12559322] the “Brain exposure in PET imaging” value (mGluR2 [8]) was “low brain uptake”.
